# Reference: US11535579B2, “Hydrofluoroolefin ethers, compositions, apparatuses and methods for using same” (3M INNOVATIVE PROPERTIES COMPANY, priority 2017, dated 2022)
# Legend:
# [1] = Thermal stability: stirred 24 h with or without adsorbent, purity by GC-FID; type: physicochemical
# Experimental: The samples were stirred for 24 h at the temperatures indicated in Table 4 and then analyzed for purity by GC-FID.
# [2] = Kinematic viscosity (AVS 350 Viscosity Timer, glass viscometer); type: physicochemical
# Experimental: Kinematic viscosity of PE-1 was measured using a Viscosity Timer available under the trade designation “AVS 350” from SI Analytics, College Station, Tex., USA. For temperatures below 0° C., a temperature control bath available from Lawler Manufacturing Corporation, Edison, N.J., USA was used. The viscometer measurements stand and glass viscometer were immersed in a temperature-controlled liquid bath filled with NOVEC 7500. The Lawler temperature bath was fitted with a copper tubing coil for liquid nitrogen cooling with fine temperature control provided by the bath's electronic temperature control heater. The fluid was mechanically stirred to provide uniform temperature in the bath. The bath controls temperature within 0.1° C., measured by the built-in RTD temperature sensor. The sample liquid was added to the viscometer between the two fill lines etched on the viscometer. The AVS 350 automatically pumped the sample fluid above the upper timing mark then released the fluid followed by measurement of efflux times between the upper and lower timing marks. The fluid meniscus was detected by optical sensors as it passed each timing mark. The sample was drawn up and measured repeatedly, averaging multiple measurements.
# The glass viscometers were calibrated using certified kinematic viscosity standard fluids available from Cannon Instrument Company, State College, Pa., USA to obtain a calibration constant (centistokes per second) for each viscometer.
# The measured kinematic viscosity (centistokes) which is the average efflux time (seconds)×constant (centistokes/second) is presented in Table 3. The data summarized in Table 3 indicates a favorable low temperature liquid range, which renders these materials useful in heat transfer applications.
smiles,measurement,setting,value
"FC(F)(F)C(F)(F)C(F)(F)OC/C=C/COC(F)(F)C(F)(F)C(F)(F)F [PE-1, (E)-1,4-bis(perfluoropropoxy)but-2-ene]",Purity (thermal stability),"[1]; 4 Angstrom Molecular Sieves 100 mg, 60 °C",91.9%
same,Purity (thermal stability),"[1]; Activated Carbon 100 mg, 60 °C",91.8%
same,Purity (thermal stability),"[1]; Basic Alumina 100 mg, 60 °C",92.0%
same,Purity (thermal stability),"[1]; K2CO3 100 mg, 60 °C",91.6%
same,Purity (thermal stability),"[1]; No Adsorbent, 25 °C",91.7%
same,Purity (thermal stability),"[1]; No Adsorbent, 60 °C",91.7%
same,Purity (thermal stability),"[1]; Silica Gel 100 mg, 60 °C",91.7%
same,Kinematic Viscosity,[2]; 0.0 °C,3.16 cSt
same,Kinematic Viscosity,[2]; −10.0 °C,4.28 cSt
same,Kinematic Viscosity,[2]; −30.0 °C,10.24 cSt
same,Kinematic Viscosity,[2]; −40.0 °C,17.44 cSt
same,Kinematic Viscosity,[2]; −50.0 °C,28.23 cSt
same,Kinematic Viscosity,[2]; −60.0 °C,59.59 cSt
